Data set [1] has as its target APP (Homo sapiens, UniProt P05067). Description: Western blot of APP in iPSC-derived neurons. It counts as cell-based. On the set-up: endogenous in cells; host or cells: iPSC-derived neurons (AG27606-Ns, sAD2.3-Ns and others). Conditions: for APP-degrading activity after Bafilomycin A1 pretreatment: Baf A1 20 nM, AG27606-Ns, sAD2.3-Ns, HEK-APP695 cells; for APP-degrading activity after Bafilomycin A1 pretreatment / APP-degrading activity after MG132 pretreatment: 30 min, then compound 10 µM, 24 h; for APP-degrading activity after MG132 pretreatment: MG132 5 µM. In general terms: Immunoblotting shows a protein as a band on a membrane.

A short description of data set [2]: IV and PO pharmacokinetics in mice. Conditions: male; for AUC(0-t) / half-life / C0 / Tmax / Cmax: mouse plasma; for C0 / Cmax: read-out: C0/Cmax; for bioavailability: C57BL/6, mouse, plasma, oral, 10 mg/kg, PO 10 mpk vs IV 1 mpk, read-out: %F (oral bioavailability); for bioavailability / clearance / Vd: mouse; for clearance / Vd: C57BL/6, plasma, 1 mg/kg; for Vd: read-out: Vss. It is filed as in vivo, C57BL/6 male mice. Here is the method: IV and PO PK in rodents were processed by Sai Life Sciences Pvt. Ltd using 8‐ to 10‐week‐old C57BL/6 male mice following a single intravenous administration at 1 mg/kg and oral administration at 10 mg/kg. A total of eighteen mice (n = 9/group) were divided into two groups as Group 1 and Group 2, with a sparse sampling design (3 mice/time points). Animals in Group 1 were administered intravenously as slow bolus injections through the tail vein at 1 mg/kg dose, and animals in Group 2 were administered through the oral route at 10 mg/kg. For 0043, the formulation vehicle used for IV group was 5% NMP, 10% PG, 5% Solutol HS‐15, and 80% Captisol (10% w/v in RO water), and the formulation used for the PO group was 10% NMP, 10% PG, 10% TPGS, and 70% Captisol (10% w/v in RO water). For 0152, the formulation vehicle used for IV group was 5% DMSO, 20% Solutol HS‐15, and 75% PBS, and the formulation used for PO group was 5% NMP, 10% PG, 5% Solutol HS‐15, and 80% Captisol (10% w/v in RO water). Blood samples (approximately 60 µL) were collected under light isoflurane anesthesia (Surgivet) from retro orbital plexus from a set of three mice at 0.08, 0.25, 0.5, 1, 2, 4, 6, 8 and 24 h for IV and […], 0.5, 1, 2, 4, 6, 8 and 24 h for PO. Immediately after blood collection, plasma was harvested by centrifugation at 10 000 rpm, 10 min at […], and samples were stored at ‐70±10°C until bioanalysis. All samples were processed for analysis by the protein precipitation method and analyzed with a fit‐for‐purpose LC‐MS/MS method (LLOQ = 1.01 ng/mL). The plasma pharmacokinetic parameters were estimated using the non‐compartmental analysis tool of Phoenix WinNonlin software (Ver 8.3).

For data set [3], the system named is APP trafficking through the endosomal‐lysosomal pathway. Description: Confocal colocalization of APP / CAPRIN1 with organelle markers. It counts as cell-based, human. Conditions: for APP–LAMP1 colocalization: AD iPSC-Ns. Here is the method: Cells were grown on glass cover slips coated with 1% Matrigel and treated with drugs. Cells were washed, fixed, permeabilized, blocked, and incubated in primary antibodies diluted in blocking solution (1% v/v BSA solution/5% Goat serum in PBS containing 0.1% Triton X‐100) overnight at 4°C. The cells were washed three times with PBS and incubated in secondary antibodies in a blocking solution for 1 h at room temperature, then washed with PBS, followed by HOECHST staining (Invitrogen) for 5 min, and washed with PBS. The glass coverslips were put on a slide‐in mounting medium ([…]), and the edges were sealed with coverslip sealant (BIOTIUM). Image data were captured and processed with a confocal microscope system (Olympus Fluoview FV1000 or Leica DIVE) and the ImageJ program. For 3D organoids staining, organoids were fixed in 10% formalin overnight at room temperature, followed by incubation in 30% sucrose solution overnight at room temperature, embedded in optimal cutting temperature compound (OCT, FisherScientific), and kept at ‐80°C overnight. Frozen samples were sectioned at 10 µm using a cryostat (Leica) and mounted on microscope slides (Fisherbrand superfrost plus, FisherScientific). Before immunolabeling, sections were rinsed in PBS for 5 min, permeabilized for 30 min in PBS containing 0.3% Triton‐X 100, blocked for 1 h in PBS containing 5% BSA and 0.1% Triton‐X 100, and incubated with primary antibodies diluted in the same blocking solution. Then, secondary staining, mounting, and imaging were followed.
ImageJ (Fiji) program (NIH, Bethesda, MD, USA) was used o analyze images. Pearson's correlation coefficients were calculated with the JACoP plugin from two channels (BIOP). For colocalization/trafficking analysis with organelles in iPSC‐Ns, HEK293 cells, and 3D organoids, APP or CAPRIN1 with organelles signals were segmented using a trainable weka segmentation plugin in Fiji as previously described. Colocalized areas were calculated in the image calculator tool ([…] function) to get an overlayed area for the segmented signals, followed by using the analyze particle tool in Fiji to determine by > 1‐pixel overlapping of the segmented signal. To determine the fluorescence intensity, the corrected total cell fluorescence (CTCF) was used using the formula: CTCF = Integrated Density—(Area of selected cell x Mean fluorescence of background readings), as described previously. Bright‐field images of immunoperoxidase‐stained and Thioflavin S‐stained brain sections were exported as 16‐bit RGB TIFF files and analyzed using ImageJ (Fiji), following previously established protocols. To isolate the DAB signal for quantification, color deconvolution was performed using the “H DAB” setting in the Color Deconvolution plugin in ImageJ. The resulting “Colour_2” image, corresponding to the DAB chromogen, was converted to 8‐bit grayscale for further analysis. Manual thresholding was applied to the DAB channel using the threshold adjustment tool in ImageJ. […] Regions of interest (ROIs), specifically the subiculum, hippocampus, and cortex, were manually delineated based on anatomical landmarks and saved using the ROI Manager. For each ROI, the DAB‐positive area was quantified using the Analyze Particles plugin with default particle size settings. The percentage of DAB‐positive area was calculated as the ratio of the DAB‐positive area to the total area of each ROI.

As usually defined, the AUC(0-t) is exposure summed from dosing to a finite time, without extrapolation to infinity. A high value points to more exposure. Broadly, the half-life is how long it takes for the measured level to halve. A lower half-life goes with rapid decline. A word on the Tmax: it is the time at which the peak concentration occurs. As usually defined, the bioavailability is the share of a dose that reaches the circulation, judged against a reference dose that is usually intravenous.

Chain of APP (P05067 18-695 isoform P05067-4): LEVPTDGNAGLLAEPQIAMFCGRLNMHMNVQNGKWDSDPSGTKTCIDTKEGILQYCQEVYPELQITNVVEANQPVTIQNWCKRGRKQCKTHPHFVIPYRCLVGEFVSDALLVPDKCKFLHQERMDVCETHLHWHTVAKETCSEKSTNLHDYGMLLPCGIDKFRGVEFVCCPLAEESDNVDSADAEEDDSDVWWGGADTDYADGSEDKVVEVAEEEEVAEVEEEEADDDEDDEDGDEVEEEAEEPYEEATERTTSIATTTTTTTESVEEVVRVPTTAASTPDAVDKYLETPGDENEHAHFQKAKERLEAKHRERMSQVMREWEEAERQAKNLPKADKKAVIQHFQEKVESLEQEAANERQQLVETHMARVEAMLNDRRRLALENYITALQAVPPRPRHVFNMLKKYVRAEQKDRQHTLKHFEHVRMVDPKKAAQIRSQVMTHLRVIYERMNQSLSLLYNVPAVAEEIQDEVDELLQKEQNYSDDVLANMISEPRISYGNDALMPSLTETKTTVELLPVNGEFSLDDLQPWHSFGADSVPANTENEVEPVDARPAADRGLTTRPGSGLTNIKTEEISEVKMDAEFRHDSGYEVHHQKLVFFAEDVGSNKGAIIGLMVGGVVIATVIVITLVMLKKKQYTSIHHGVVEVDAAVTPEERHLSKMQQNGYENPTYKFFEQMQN
Chain of APP (Q14444 whole entry partner): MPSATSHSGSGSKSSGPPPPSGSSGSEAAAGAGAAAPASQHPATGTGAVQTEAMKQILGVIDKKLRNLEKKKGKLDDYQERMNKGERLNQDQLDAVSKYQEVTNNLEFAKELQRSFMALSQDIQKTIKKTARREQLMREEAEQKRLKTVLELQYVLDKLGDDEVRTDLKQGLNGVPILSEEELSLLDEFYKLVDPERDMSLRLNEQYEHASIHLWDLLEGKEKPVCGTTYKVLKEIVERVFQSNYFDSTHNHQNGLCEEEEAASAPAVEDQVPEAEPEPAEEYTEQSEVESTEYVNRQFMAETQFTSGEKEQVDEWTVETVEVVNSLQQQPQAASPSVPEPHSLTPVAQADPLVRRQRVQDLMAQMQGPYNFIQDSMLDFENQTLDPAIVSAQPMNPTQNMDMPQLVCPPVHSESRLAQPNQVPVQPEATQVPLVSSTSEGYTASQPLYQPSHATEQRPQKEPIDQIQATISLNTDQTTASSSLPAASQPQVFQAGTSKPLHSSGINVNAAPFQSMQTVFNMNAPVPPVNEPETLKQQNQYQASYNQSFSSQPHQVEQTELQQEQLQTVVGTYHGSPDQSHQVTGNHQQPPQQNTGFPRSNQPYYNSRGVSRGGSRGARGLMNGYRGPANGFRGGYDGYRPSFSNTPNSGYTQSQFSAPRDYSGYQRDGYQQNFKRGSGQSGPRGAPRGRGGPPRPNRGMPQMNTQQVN

Regarding `N#Cc1cccc(NC(=O)Nc2nc3ccc(C(=O)N4CCOCC4)cc3s2)c1` [compound 0043], in data set [1], the “APP-degrading activity after Bafilomycin A1 pretreatment” value is reported as “abolished” and the “APP-degrading activity after MG132 pretreatment” value is “no effect”. The “Intracellular APP (western blot)” value in data set [1] (SAD2.3-Ns and AG27606-Ns, 72 h, BI 10 µM) is on record as “reduced intracellular APP”. Further, in data set [2] (C57BL/6, 1 mg/kg, IV, 1 mpk), the AUC(0-t) is 219 ng·h/mL, the half-life is 9.6 min and the C0 came to 1380 ng/mL. Further, in data set [2] (C57BL/6, 10 mg/kg, PO, 10 mpk), the exposure AUC(0-t) is 107 ng·h/mL, the Tmax came to 15 min, the half-life was 95.4 min and the Cmax was found to be 97.5 ng/mL. Also, the bioavailability in data set [2] came out at 5%. Also, in data set [2] (IV, 1 mpk), the clearance stood at 75.3 mL/min/kg and the Vd is 0.77 L/kg. Besides, the “APP–LAMP1 colocalization” value in data set [3] (10 µM, 24 h) is on record as “increased APP–LAMP1 colocalization”. Also, in data set [3] (AG27606-Ns, 10 µM, 0, 3 or 7 h), the “APP colocalization with EEA1, Rab7 and LAMP1” value was “significantly increased APP colocalization with all three markers”; the “CAPRIN1 colocalization with Rab7 and LAMP1” value is reported as “increase its colocalization with both markers”.
As for `COc1cccc(NC(=O)Nc2nc3ccc(C(=O)N4CCOCC4)cc3s2)c1` [compound 0152], in data set [1], the “APP-degrading activity after Bafilomycin A1 pretreatment” value is reported as “abolished” and the “APP-degrading activity after MG132 pretreatment” value is given as “no effect”. Besides, in data set [2] (C57BL/6, 1 mg/kg, IV, 1 mpk), the AUC(0-t) came out at 209 ng·h/mL, the half-life was 25.2 min and the C0 was found to be 938 ng/mL. In data set [2] (C57BL/6, 10 mg/kg, PO, 10 mpk), the AUC(0-t) came to 624 ng·h/mL, the time of peak concentration (Tmax) was 30 min, the half-life is 144 min and the Cmax was found to be 804 ng/mL. The bioavailability in data set [2] was at most 30%. Further, in data set [2] (IV, 1 mpk), the clearance amounted to 78.6 mL/min/kg and the Vd amounted to 1.34 L/kg. Also, the “APP–LAMP1 colocalization” value in data set [3] (10 µM, 24 h) is on record as “increased APP–LAMP1 colocalization”. Moreover, in data set [3] (AG27606 neurons, 10 µM, 24 h), the “Colocalization of APP and CAPRIN1 with GGA1” value is “enhanced the colocalization of both APP and CAPRIN1 with GGA1”; the “Colocalization of APP and CAPRIN1 with SorLA” value was “reduced the colocalization of both APP and CAPRIN1 with SorLA”.
